In ChEMBL document CHEMBL4699609, “Synthesis and biological activities of simplified aplysiatoxin analogs focused on the CH/π interaction” (Bioorg Med Chem Lett, 2020):
Active and inactive are the calls of the source. The rule behind the calls is not given here.

Tests used:
[1] = Induction of inflammation in ICR mouse assessed as increase in relative weight of each ear at 170 nmol measured after 24 hrs; format: tissue-based
[2] = target: Protein kinase C delta type (Mus musculus, UniProt P28867); assay: Displacement of [3H]-PDBu from PKCdelta C1B domain in CD-1 mouse brain cytosol; format: subcellular
NCI-H460 = assay: Antiproliferative activity against human NCI-H460 cells assessed as cell growth inhibition after 48 hrs by sulforhodamine B assay; format: functional
LOX IMVI = assay: Antiproliferative activity against human LOX IMVI cells assessed as cell growth inhibition after 48 hrs by sulforhodamine B assay; format: functional
St-4 = assay: Antiproliferative activity against human St-4 cells assessed as cell growth inhibition after 48 hrs by sulforhodamine B assay; format: functional
[3] = Antiproliferative activity against human HBC-4 cells assessed as cell growth inhibition after 48 hrs by sulforhodamine B assay; format: functional; conditions: HBC4
HCC 2998 = assay: Antiproliferative activity against human HCC 2998 cells assessed as cell growth inhibition after 48 hrs by sulforhodamine B assay; format: functional
MDA-MB-231 = assay: Antiproliferative activity against human MDA-MB-231 cells assessed as cell growth inhibition after 48 hrs by sulforhodamine B assay; format: functional
[4] = target: Protein kinase C alpha type (Mus musculus, UniProt P20444); assay: Displacement of [3H]-PDBu from PKCalpha C1A domain in CD-1 mouse brain cytosol; format: subcellular
SF-295 = assay: Antiproliferative activity against human SF-295 cells assessed as cell growth inhibition after 48 hrs by sulforhodamine B assay; format: functional
MKN-45 = assay: Antiproliferative activity against human MKN-45 cells assessed as cell growth inhibition after 48 hrs by sulforhodamine B assay; format: functional
A549 = assay: Antiproliferative activity against human A549 cells assessed as cell growth inhibition after 48 hrs by sulforhodamine B assay; format: functional
Ear = assay: Proinflammatory activity in ICR mouse assessed as increase in relative weight of each ear at 17 nmol measured after 24 hrs; format: functional, tissue-based

Chain of Protein kinase C delta type (P28867 whole entry, the tested form may be a part): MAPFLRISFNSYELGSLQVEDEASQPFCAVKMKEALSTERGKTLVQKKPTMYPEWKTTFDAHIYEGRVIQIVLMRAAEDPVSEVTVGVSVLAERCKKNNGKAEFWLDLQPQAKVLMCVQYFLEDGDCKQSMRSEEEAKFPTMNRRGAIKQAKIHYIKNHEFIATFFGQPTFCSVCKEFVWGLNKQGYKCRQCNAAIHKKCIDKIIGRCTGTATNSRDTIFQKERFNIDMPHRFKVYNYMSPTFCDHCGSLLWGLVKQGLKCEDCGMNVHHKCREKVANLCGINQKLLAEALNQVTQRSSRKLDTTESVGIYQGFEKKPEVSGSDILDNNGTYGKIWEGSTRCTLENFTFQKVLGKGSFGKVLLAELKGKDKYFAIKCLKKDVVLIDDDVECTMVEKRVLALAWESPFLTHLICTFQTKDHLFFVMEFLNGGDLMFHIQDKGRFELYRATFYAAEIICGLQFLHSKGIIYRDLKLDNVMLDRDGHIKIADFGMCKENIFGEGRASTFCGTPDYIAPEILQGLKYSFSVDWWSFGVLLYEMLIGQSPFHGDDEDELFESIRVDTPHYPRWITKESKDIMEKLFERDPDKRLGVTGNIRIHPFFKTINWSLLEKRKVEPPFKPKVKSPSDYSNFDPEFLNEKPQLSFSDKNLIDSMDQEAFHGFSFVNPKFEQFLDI

| Compound | Activity [1] | Ki [2] [nM] | GI50 (NCI-H460) [nM] | GI50 (LOX IMVI) [nM] | GI50 (St-4) [nM] | GI50 [3] [nM] | GI50 (HCC 2998) [nM] | GI50 (MDA-MB-231) [nM] | Ki [4] [nM] | GI50 (SF-295) [nM] | GI50 (MKN-45) [nM] | GI50 (A549) [nM] | Activity (Ear) |
| --- | --- | --- | --- | --- | --- | --- | --- | --- | --- | --- | --- | --- | --- |
| C[C@H]1[C@@H]2C[C@@]3(O[C@H](CCC3(C)C)CC(=O)O[C@@H](CO)CC(=O)O2)O[C@@H]1CCCCc1cccc(O)c1 | Toxic |  |  |  |  |  |  |  |  |  |  |  |  |
| C[C@H]1[C@@H]2C[C@@]3(O[C@H](CCC3(C)C)CC(=O)O[C@@H](CO)CC(=O)O2)O[C@@H]1CCCCc1cccc2cc(O)ccc12 | Toxic | 0.98 | 162 | 447 | 240 | 91.2 | 501 | 891 | 6.4 | 955 | 479 | 759 |  |
| C[C@H]1[C@@H]2C[C@@]3(O[C@H](CCC3(C)C)CC(=O)O[C@@H](CO)CC(=O)O2)O[C@@H]1CCCCc1cccc2cc(OCc3ccccc3)ccc12 |  | 0.74 | 115 | 182 | 52.5 | 63.1 | 398 | 537 | 7.6 | 871 | 195 | 692 | Active |
